Data taken from EP0459830A1, “Pharmacologically active CNS compounds” (THE WELLCOME FOUNDATION LIMITED, priority 1990, dated 1991).

Tests used:
[1] = test system: veratrine-evoked release of glutamate from rat brain slices; test: veratrine-evoked release of glutamate from rat brain slices; type: cell-based; details: read-out: IC50(μM) Glutamate Release (P95 limits)
Procedure: (§1) Compounds of formula (Ia) were tested for their effect on veratrine-evoked release of glutamate from rat brain slices according to the protocol described in Epilepsia 27(5): 490-497, 1986. The protocol for testing for inhibition of DHFR activity was a modification of that set out in Biochemical Pharmacology Vol.20 pp 561-574, 1971.
(§2) The results are given in Table 1, the IC₅₀ being the concentration of compound to […] 50% of DHFR enzyme activity.

Rat Liver DHFR = biological target: T1, Rat Liver DHFR (Rattus norvegicus, UniProt Q920D2); test: inhibition of DHFR activity; type: biochemical; details: rat liver DHFR enzyme activity; read-out: IC50(μM) Rat Liver DHFR (P95 limits)
T1 construct: from tissue; host or cells: rat liver
T1 sequence (Q920D2 1-187): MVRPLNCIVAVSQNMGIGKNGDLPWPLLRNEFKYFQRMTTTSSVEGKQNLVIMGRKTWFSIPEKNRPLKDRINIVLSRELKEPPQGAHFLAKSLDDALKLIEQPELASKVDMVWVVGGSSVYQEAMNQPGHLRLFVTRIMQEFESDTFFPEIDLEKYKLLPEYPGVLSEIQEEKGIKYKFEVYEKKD
Procedure: as §1, §2

[2] = test system: release of the excitatory amino acids, glutamate and aspartate; details: Leach et al Epilepsia 27, 490-497 1986; Miller et al 1987; cited from earlier work

Compound | IC50 [1] | IC50 (Rat Liver DHFR) | inhibition of release of glutamate and aspartate [2]
Cc1c(N)nc(N)nc1-c1ccc(Cl)cc1 [*, 2,4-Diamino-5-methyl-6-(4-chlorophenyl)pyrimidine] | > 10 µM | > 55 µM | –
Nc1cc(-c2cccc(Cl)c2Cl)nc(N)n1 [Example 1, 2,4-Diamino-6-(2,3-dichlorophenyl)pyrimidine] | 10 µM | < 100 µM | –
Nc1cc(-c2ccccc2Cl)nc(N)n1 [Example 2, 2,4-Diamino-6-(2-chlorophenyl)pyrimidine] | 10 µM | > 100 µM | –
Nc1cc(-c2ccc(Cl)cc2Cl)nc(N)n1 [Example 3, 2,4-Diamino-6-(2,4-Dichlorophenyl)pyrimidine] | > 10 µM | < 100 µM | –
Nc1cc(-c2cccc3ccccc23)nc(N)n1 [Example 4, 2,4-Diamino-6-(1-naphthyl)pyrimidine] | > 10 µM | 100 µM | –
Nc1nnc(-c2cccc(Cl)c2Cl)c(N)n1 [lamotrigine, 3,5-diamino-6-(2,3-dichlorophenyl)-1,2,4-triazine] | – | – | inhibit the release of the excitatory amino acids, glutamate and aspartate
